# Laboratory results published in patent publication US8735444B2, “Fluorinated rhodamines as photostable fluorescent dyes for labelling and imaging techniques” (Max-Planck-Gesellschaft zur Foerderung der Wissenschaften …, priority 2009, dated 2014).
# Like-named read-outs stand apart in the source and are kept apart here. Marks after values point to notes of the source that are not given here.
# Tests used:
# [1] = Spectral properties of the fluorinated rhodamines (absorption, emission, quantum yield, lifetime); format: physicochemical
# From the text: Extinction coefficients (of the long wavelength maximum) which are lower than ca. 8×10^4 M^−1 cm^−1 indicate the presence of the closed non-fluorescent form.
# [2] = tested on: living mammalian cells (PtK2); assay: Membrane-permeation experiments in living cells, epifluorescence microscope; format: cell-based; details: for Structures stained in living cells: 15 minutes
# Procedure: FIG. 9. Membrane-permeation experiments of the presented dyes. Living mammalian cells (PtK2) were incubated for 15 minutes with a 50 μg dye/ml solution. The subcellular localization of the dye was imaged in an epifluorescence microscope. A: 46-H—CH2 CF3—H—H (16); B: 42-COOH (15); C: 23; D: 37-Me-Me-H (27); E: 42-H (14)-methylester; F: 33-H—H (18).
# The most important prerequisite for fluorophores used in these labeling strategies is that sufficient amounts of it need to pass cellular membrane(s) to reach the target protein. In order to asses the permeability of the cell membrane to the fluorescent dyes described in the presented invention, living mammalian cells (PtK2) previously grown overnight on cover slips, were first subjected to either 500 μg dye/ml or 50 μg dye/ml in growth medium for 15 minutes. (The amount of dye used for labeling of SNAP-fusion proteins is below 5 μg dye/ml.) Then, the cells were washed with growth medium (without dye) for 15 minutes, and imaged using an epifluorescence microscope.
# [3] = set-up: ε × 10^−4: unit not given beside the values; details: cited from earlier work
# [4] = a + b (aqueous buffer at pH 7 + methanol)
# [5] = adding methanol to an aqueous buffer
# [6] = value for the closed form, methanol
Molecule,ABSORPTION ε ([1]; aqueous buffer at pH 7) [M⁻¹ cm⁻¹],ABSORPTION λMAX ([1]; aqueous buffer at pH 7),EMISSION λMAX ([1]; aqueous buffer at pH 7),EMISSION λMAX ([1]; methanol) [nm],Structures stained in living cells ([2]; 500 μg dye/ml),ΦFL ([1]; aqueous buffer at pH 7),τFL ([1]; aqueous buffer at pH 7) [ns],ABSORPTION ε ([1]; methanol) [M⁻¹ cm⁻¹],ABSORPTION λMAX ([1]; methanol),Structures stained in living cells ([2]; 50 μg dye/ml),also measured
"2,7-Difluoro-5′(6′)-methoxycarbonyl-N,N,N′,N′-tetramethyl-rhodamine [Compound 28]",31000,525 nm,554 nm,589,Red cytoplasmatic and mitochondrial,,,,,,"ABSORPTION λMAX [1, 4]: 558 nm; bathochromic shift in absorption maximum [1, 5]: 23 nm; bathochromic shift in emission maximum [1, 5]: 35 nm"
O=C1OC2(c3cc(F)c(O)cc3Oc3cc(O)c(F)cc32)c2ccccc21 [Compound 8],,,,,,,,,,,"τ ([3]; 20° C.): ^7*τ = 4.1 ns (20° C.).; ε × 10^−4 ([3]; H2O, pH = 9): 8.5^4*; λem ([3]; H2O, pH = 9): 518^4* nm; λmax ([3]; H2O, pH = 9): 492^4* nm"
"O=C1OC2(c3cc(F)c(NCC(F)(F)F)cc3Oc3cc(NCC(F)(F)F)c(F)cc32)c2ccccc21 [Compound 18, 2,7-Difluoro-N,N′-bis(2,2,2-trifluoroethyl)rhodamine]",,494 nm,521 nm,519,,1.00,3.8,41000,500 nm,Dim cytoplasmatic stain with bright,"ABSORPTION λMAX [1, 6]: (292)^2b nm"
"O=C(O)c1ccc2c(c1)C1(OC2=O)c2ccc(NCC(F)(F)F)cc2Oc2cc(NCC(F)(F)F)ccc21 [15 (43-COOH), 6′-carboxy-N,N′-bis(2,2,2-trifluoroethyl)rhodamine]",88000,501 nm,523 nm,522,,0.93,,,497 nm,,"Structures stained in living cells ([2]; 500 μg dye/ml, listed as 43-COOH (15)): Nearly no stain visible."
"O=C(O)c1ccc2c(c1)C1(OC2=O)c2ccc(NCC(F)(F)F)cc2Oc2cc(NCC(F)(F)F)ccc21 [15 (42-COOH), 5′-Carboxy-N,N′-bis(2,2,2-trifluoroethyl)rhodamine]",85000,501 nm,525 nm,524,,0.95,4.1,,500 nm,Dim cytoplasmatic stain with dots,"Structures stained in living cells ([2]; 500 μg dye/ml, listed as 42-COOH (15)): Bright cytoplasmatic stain visible."
"5′ (6′)-Carboxy-2,7-difluoro-4,5-disulforhodamine [Compound 13]",,490 nm,514 nm,517,Nearly no stain visible.,0.97,4.1,32000,502 nm,Dim cytoplasmatic stain with dots,
"Cl.N=c1ccc2c(-c3ccccc3C(=O)O)c3ccc(N)cc3oc-2c1 [Compound 1, rhodamine 110]",,,,,,,,,,,"Φfl ([3]; basic EtOH): 0.92; λem ([3]; basic EtOH): 524 nm; ε × 10^−4 ([3]; water, pH = 7): 8.3; λem ([3]; water, pH = 7): 520** nm; λmax ([3]; water, pH = 7): 496 nm"
"CN(C)c1cc2c(cc1F)C1(OC(=O)c3ccccc31)c1cc(F)c(N(C)C)cc1O2 [Compound 27, 2,7-Difluoro-N,N,N′,N′-tetramethylrhodamine]",50000,554 nm,586 nm,576,Red cytoplasmatic and mitochondrial,0.02,3.3,,546 nm,,"fluorescence in aqueous buffer ([1]; aqueous buffer): nearly non-fluorescent; fluorescence signal inside the living cells ([2]; compared with aqueous buffer, Example 12, FIG. 9D): considerably stronger"
"N,N-Bis(2,2,2-trifluoroethyl)rhodamine [Compound 14]",81000,499^a nm,522^ nm,,Nearly no stain visible.,0.88,3.9,,,,
"CNc1cc2c(cc1F)C1(OC(=O)c3ccccc31)c1cc(F)c(NC)cc1O2 [Compound 23, 2,7-Difluoro-N,N′-dimethylrhodamine]",,513 nm,539 nm,537,Mitochondrial stain visible. Bright,0.87,4.0,56000,511 nm,Dim cytoplasmatic stain with dots,
"CN(CC(F)(F)F)c1cc2c(cc1F)C1(OC(=O)c3ccccc31)c1cc(F)c(N(C)CC(F)(F)F)cc1O2 [Compound 25, 2,7-Difluoro-N,N-dimethyl-N,N-bis(2,2,2-trifluoromethyl)-rhodamine]",,,,,Only dim stain visible.,,,,,,"fluorescence efficiency of the open acidic form ([1]; acidic solutions): relatively low fluorescence efficiency; ΦFL ([1]; measured at pH 1): (0.20)^1; τFL ([1]; measured at pH 1): (1.2)^1 ns; ABSORPTION ε ([1]; measured at pH 1, aqueous): (3.2)^1a (M^−1 cm^−1) × 10^−4; ABSORPTION λMAX ([1]; measured at pH 1, aqueous): 528 nm; EMISSION λMAX ([1]; measured at pH 1, aqueous): (557)^1a nm; colour of solutions ([1]; methanol, water and neutral buffers): colorless solutions; ABSORPTION λMAX [1, 6]: 300 nm"
"5′(6′)-Carboxy-2,7-difluoro-N,N′-dimethylrhodamine [Compound 24]",,"515^a, 515^b nm",543 nm,538,Cellular stain visible; bright,0.86,4.1,56000,"515^a, 515^b nm",,
"5′ (6′)-carboxy-2,7-difluoro-N,N′-bis(2,2,2-trifluoroethyl)-rhodamine [Compound 19]",53000,496 nm,522 nm,520,,0.89,3.8,,498 nm,Dim cellular stain with dots,
"5′(6′)-Carboxy-2,7-difluororhodamine [Compound 11]",,496 nm,522 nm,523,Dye exclusion! No dye within cell,0.92,4.0,50000,498 nm,,
"5′,(6′)-Carboxy-2,7-difluoro-N,N″-bis(2,2,2-trifluoroethyl)-4,5-disulforhodamine [Compound 21]",,509 nm,533 nm,541,Cytoplasmatic and mitochondrial,0.86,3.3,42000,517 nm,Dim cytoplasmatic stain with dots,
"Nc1cc2c(cc1F)C1(OC(=O)c3ccccc31)c1cc(F)c(N)cc1O2 [Compound 10, 2,7-Difluororhodamine]",,494 nm,520 nm,522,High background staining visible.,0.87,3.9,41000,498 nm,,
"5′ (6′)-Carboxy-2,7-difluoro-N,N′-dimethyl-N,N-bis(2,2,2-trifluoroethyl)rhodamine [Compound 26]",,,,,Cellular stain visible; bright,,,,,,"ABSORPTION λMAX [1, 4]: 523 nm; ABSORPTION λMAX [1, 6]: 291 nm"
